Results reported in the Deep4Chem optical property database.
Blank lines part the entries; values can stand above or below the molecule they belong to.

Test: photoluminescence quantum yield (fraction); solvent given as SMILES

- photoluminescence quantum yield (in O): 0.001
SMILES: Cc1ccc(N(C)C)cc1C1=C2C=CC(=[N+](C)C)C=C2[Si](C)(C)c2cc(N(C)C)ccc21

- photoluminescence quantum yield (in ClCCl): 0.81
SMILES: COc1ccc(C#Cc2nc(C#Cc3ccc(OC)cc3)c(C#Cc3ccc(OC)cc3)c(C#Cc3ccc(OC)cc3)c2C#Cc2ccc(OC)cc2)cc1

SMILES: COc1cc(/C=C/c2ccccc2)cc(OC)c1
- photoluminescence quantum yield (in C1CCCCC1): 0.18
- photoluminescence quantum yield (in CC#N): 0.32
- photoluminescence quantum yield (in CC(C)O): 0.27
- photoluminescence quantum yield (in CCCCOCCCC): 0.26
- photoluminescence quantum yield (in CCOC(C)=O): 0.29
- photoluminescence quantum yield (in CCOCC): 0.27

SMILES: CCCCN(CCCC)c1ccc(/C=C/c2ccc3c(c2)CCc2cc(/C=C/c4ccc(N(CCCC)CCCC)cc4)ccc2-3)cc1
- photoluminescence quantum yield (in CS(C)=O): 0.87
- photoluminescence quantum yield (in Cc1ccccc1): 0.71

- photoluminescence quantum yield (in ClC(Cl)Cl): 0.72
SMILES: N#CC1=CC(C=O)=CC(C#N)=P1(c1ccccc1)c1ccccc1

SMILES: CN(C)c1ccc(C#Cc2ccc(C#N)cc2)cc1
- photoluminescence quantum yield (in C1CCCCC1): 0.455
- photoluminescence quantum yield (in C1CCOC1): 0.4
- photoluminescence quantum yield (in C1COCCO1): 0.066
- photoluminescence quantum yield (in CC1CCCO1): 0.099
- photoluminescence quantum yield (in CC#N): 0.024
- photoluminescence quantum yield (in CC(C)=O): 0.49
- photoluminescence quantum yield (in CC(C)CC(C)(C)C): 0.032
- photoluminescence quantum yield (in CC(C)O): 0.006
- photoluminescence quantum yield (in CCCCCCCCCCCCCCCC): 0.3
- photoluminescence quantum yield (in CCCCCCCCCCCCCCCCCl): 0.33
- photoluminescence quantum yield (in CCOC(C)=O): 0.33
- photoluminescence quantum yield (in CCOCC): 0.29
- photoluminescence quantum yield (in CN(C)C=O): 0.17
- photoluminescence quantum yield (in CS(C)=O): 0.029
- photoluminescence quantum yield (in Cc1ccccc1): 0.38

- photoluminescence quantum yield (in CO): 0.27
SMILES: COc1ccc(-c2nc(-c3ccccc3OC)[nH]c2-c2ccc(OC)cc2)cc1

SMILES: CN(C)c1ccc2c(c1)COc1c-2oc2ccccc2c1=O
- photoluminescence quantum yield (in C1CCCCC1): 0.5
- photoluminescence quantum yield (in C1CCOC1): 0.91
- photoluminescence quantum yield (in CC#N): 0.86
- photoluminescence quantum yield (in CCOC(C)=O): 0.95
- photoluminescence quantum yield (in CCOCC): 1
- photoluminescence quantum yield (in CO): 0.68
- photoluminescence quantum yield (in Cc1ccccc1): 1

- photoluminescence quantum yield (in CC#N): 0
SMILES: O=[N+]([O-])c1ccc(C#Cc2ccccc2C#Cc2ccc([N+](=O)[O-])cc2)cc1

SMILES: COc1ccc(N(c2ccc(OC)cc2)c2ccc(-c3ccc4c(c3)C(=O)c3ccccc3C4=O)cc2)cc1
- photoluminescence quantum yield (in C1CCOC1): 0
- photoluminescence quantum yield (in CCCCCC): 0.265
- photoluminescence quantum yield (in CCOC(C)=O): 0
- photoluminescence quantum yield (in Cc1ccccc1): 0.0045
- photoluminescence quantum yield (in ClC(Cl)(Cl)Cl): 0.0538
- photoluminescence quantum yield (in ClCCl): 0

- photoluminescence quantum yield (in ClC(Cl)Cl): 0.14
SMILES: Cc1cc(=O)oc2cc3c4ccc(C(C)(C)C)cc4c4cc(C(C)(C)C)ccc4c3cc12

- photoluminescence quantum yield (in CCO): 0.111
SMILES: CC1(C)CC(/C=C/c2ccc(N3CCOCCOCCOCCOCC3)cc2)=CC(=C(C#N)C#N)C1

- photoluminescence quantum yield (in CCO): 0.84
SMILES: Cc1c(COC(=O)Cc2cccc3ccccc23)n2c(OCC(=O)Cc3cccc4ccccc34)c(C)c(=O)n2c1=O

- photoluminescence quantum yield (in ClCCl): 0.2
SMILES: F[B-]12OC(c3ccccc3)=Nc3cccc([n+]31)N=C(c1ccccc1)O2

- photoluminescence quantum yield (in C1CCCCC1): 0.042
- photoluminescence quantum yield (in CC#N): 0.065
- photoluminescence quantum yield (in CCO): 0.064
- photoluminescence quantum yield (in c1ccccc1): 0.065
SMILES: CNc1cccc2c1C(=O)c1ccccc1-2

- photoluminescence quantum yield (in CCO): 0.0111
- photoluminescence quantum yield (in ClCCl): 0.0197
- photoluminescence quantum yield (in O): 0.01
SMILES: N#CC(C#N)=Cc1ccc(-c2ccc(-c3nc4ccccc4s3)c(O)c2)s1

SMILES: Cc1ccc(C2=[N+]3C(=Cc4c(C)cc(C)n4[B-]3(F)F)c3ccccc32)[nH]1
- photoluminescence quantum yield (in C1CCOC1): 0.82
- photoluminescence quantum yield (in CC#N): 0.84
- photoluminescence quantum yield (in CCCCCC): 0.91
- photoluminescence quantum yield (in CO): 0.83
- photoluminescence quantum yield (in Cc1ccccc1): 0.83
- photoluminescence quantum yield (in ClCCl): 0.89

- photoluminescence quantum yield (in CC#N): 0.54
- photoluminescence quantum yield (in CO): 0.44
- photoluminescence quantum yield (in CS(C)=O): 0.6
- photoluminescence quantum yield (in ClC(Cl)Cl): 0.6
SMILES: CCC1=C(C)c2cc3c(OC)cc(OC)cc3c(=O)n2C1=O

- photoluminescence quantum yield (in ClCCl): 0.52
SMILES: COc1ccc(-c2cnc(/C=C/c3ccccc3)o2)cc1OC

SMILES: F[B-]1(F)N2C(=Nc3cccc4cccc2c34)c2cccc[n+]21
- photoluminescence quantum yield (in CC#N): 0.0002
- photoluminescence quantum yield (in CO): 0.007
- photoluminescence quantum yield (in CS(C)=O): 0.0005
- photoluminescence quantum yield (in Cc1ccccc1): 0.006

SMILES: CCCCCCN(c1ccccc1)c1ccc2c(c1)C(CC)(CC)c1cc(/C=C/c3ccc(/C=C(\C#N)C(=O)O)s3)ccc1-2
- photoluminescence quantum yield (in C1CCOC1): 0.458
- photoluminescence quantum yield (in C1COCCO1): 0.813
- photoluminescence quantum yield (in CC#N): 0.105
- photoluminescence quantum yield (in CC(C)=O): 0.251
- photoluminescence quantum yield (in CCOC(C)=O): 0.443
- photoluminescence quantum yield (in CN(C)C=O): 0.638
- photoluminescence quantum yield (in CS(C)=O): 0.322
- photoluminescence quantum yield (in ClCCl): 0.047

SMILES: N#Cc1c(-n2c3ccccc3c3cc(Br)ccc32)c(C#N)c(-n2c3ccccc3c3cc(Br)ccc32)c(-n2c3ccccc3c3cc(Br)ccc32)c1-n1c2ccccc2c2cc(Br)ccc21
- photoluminescence quantum yield (in Cc1ccccc1): 0.85

- photoluminescence quantum yield (in ClC(Cl)Cl): 0.62
SMILES: C=Cc1ccc(-c2ccc(-c3nnc(-c4ccc(-c5nnc(-c6ccc(-c7ccc(C=C)cc7)s6)o5)cc4)o3)s2)cc1

- photoluminescence quantum yield (in C1CCCCC1): 0.59
- photoluminescence quantum yield (in CC1CCCCC1): 0.56
- photoluminescence quantum yield (in CC#N): 0.43
- photoluminescence quantum yield (in CCC(C)CC): 0.57
- photoluminescence quantum yield (in CCCCCC): 0.57
- photoluminescence quantum yield (in CCOC(C)=O): 0.47
SMILES: CCN(CC)c1ccc2cc(-c3nc4ccccc4s3)c(=O)oc2c1

- photoluminescence quantum yield (in C1CCOC1): 0.0134
- photoluminescence quantum yield (in CC#N): 0.0205
- photoluminescence quantum yield (in CCCCO): 0.0071
- photoluminescence quantum yield (in O): 0.002
- photoluminescence quantum yield (in c1ccccc1): 0.0112
SMILES: CN(C)c1ccc(/C=C/C(=O)O)cc1

- photoluminescence quantum yield (in ClCCl): 0.13
SMILES: CCCCCC(=O)c1cccc2sc3c(c12)P(=O)(c1ccccc1)c1ccccc1-3 (configuration not stated)

SMILES: Cc1cc(C)c(B(c2ccccc2-n2c3ccccc3c3ccccc32)c2c(C)cc(C)cc2C)c(C)c1
- photoluminescence quantum yield (in Cc1ccccc1): 0.79

- photoluminescence quantum yield (in ClC(Cl)Cl): 0.34
SMILES: CCCCCCCCCCOc1cc(OCCCCCCCCCC)cc(C2=C3C(/C=C/c4ccc(OC)cc4)=CC(/C=C/c4ccc(OC)cc4)=[N+]3[B-](F)(F)n3c(/C=C/c4ccc(OC)cc4)cc(C=Cc4ccc(OC)cc4)c32)c1

- photoluminescence quantum yield (in ClCCl): 0.2
SMILES: COc1ccc(-c2cc(-c3ccc(C(F)(F)F)cc3)nn2C)cc1

- photoluminescence quantum yield (in C1CCOC1): 0.55
- photoluminescence quantum yield (in C1COCCO1): 0.46
- photoluminescence quantum yield (in CC#N): 0.53
- photoluminescence quantum yield (in CCO): 0.54
- photoluminescence quantum yield (in ClCCl): 0.55
SMILES: C(=C\c1ccc(N(c2ccccc2)c2ccccc2)cc1)/c1ccc(-c2cc(-c3ccccn3)nc(-c3ccccn3)c2)cc1

- photoluminescence quantum yield (in CC#N): 0.02
- photoluminescence quantum yield (in CCCCCC): 0.01
- photoluminescence quantum yield (in CCOC(C)=O): 0.01
- photoluminescence quantum yield (in CO): 0.02
- photoluminescence quantum yield (in ClCCl): 0.02
SMILES: COc1ccc2n1[B-](F)(F)[N+]1=CC=CC1=C2c1ccccc1

- photoluminescence quantum yield (in ClC(Cl)Cl): 0.16
SMILES: CCC(CC)n1c2ccccc2c2cc3c(cc21)c1ccccc1n3C(CC)CC

- photoluminescence quantum yield (in ClC(Cl)Cl): 0.19
SMILES: O=Cc1ccc(Oc2ccc3c4c(cccc24)C(=O)N(CCO)C3=O)cc1

- photoluminescence quantum yield (in ClCCl): 0.72
SMILES: CN(C)c1ccc(/C=C/c2cc(/C=C/c3ccc(N(C)C)cc3)nc(/C=C/c3ccccc3)n2)cc1

- photoluminescence quantum yield (in C1CCOC1): 0.0575
SMILES: C[Si]1(c2ccccc2)C(c2ccc3c4ccccc4n(-c4ccccc4)c3c2)=C(c2ccccc2)C(c2ccccc2)=C1c1ccc2c3ccccc3n(-c3ccccc3)c2c1

- photoluminescence quantum yield (in C1CCCCC1): 0.41
SMILES: CCCC1(CCC)c2ccccc2-c2ccc(-c3ccc(OC)cc3)cc21

SMILES: CCC1(CC)c2cc(/C=C/c3ccc(N(c4ccccc4)c4ccccc4)cc3)ccc2-c2ccc(/C=C/c3ccc(N(c4ccccc4)c4ccccc4)cc3)cc21
- photoluminescence quantum yield (in Cc1ccccc1): 0.84

- photoluminescence quantum yield (in CO): 0.58
- photoluminescence quantum yield (in O): 0.36
SMILES: CC1(C)C2=[N+](CCCCCC(=O)NCCCNC(=O)CCCCCN3/C(=C/C=C/C=C/C=C/2)C(C)(C)c2cc(S(=O)(=O)[O-])ccc23)c2ccc(S(=O)(=O)[O-])cc21

- photoluminescence quantum yield (in O): 0.1
SMILES: COc1cc(/C=C/CO)ccc1O

SMILES: CCCCCCCCCCCCC(CCCCCCCCCC)Cn1c2cc(/C=C/c3nc4ccccc4s3)c3cccc4c5cccc6c(/C=C/c7nc8ccccc8s7)cc1c(c65)c2c34 (configuration not stated)
- photoluminescence quantum yield (in C1CCCCC1): 0.42
- photoluminescence quantum yield (in CC#N): 0.434
- photoluminescence quantum yield (in Cc1ccccc1): 0.398
- photoluminescence quantum yield (in ClCCl): 0.369

SMILES: CC(C)(C)c1ccc(-c2nnc(-c3c(-n4c5ccccc5c5ccccc54)c(-n4c5ccccc5c5ccccc54)c(-n4c5ccccc5c5ccccc54)c(-n4c5ccccc5c5ccccc54)c3-n3c4ccccc4c4ccccc43)o2)cc1
- photoluminescence quantum yield (in Cc1ccccc1): 0.13

- photoluminescence quantum yield (in ClCCl): 0.039
SMILES: Cc1ccc(C(=O)c2c(C)c3ccc4cccc5c6cccc7ccc2c(c76)c3c45)cc1

SMILES: CCCCCCCCCCCCC(CCCCCCCCCC)Cn1c2cc(/C=C/C=C(C#N)C#N)c3cccc4c5cccc6c(/C=C/C=C(C#N)C#N)cc1c(c65)c2c34 (configuration not stated)
- photoluminescence quantum yield (in C1CCCCC1): 0.044
- photoluminescence quantum yield (in CC#N): 0.061
- photoluminescence quantum yield (in Cc1ccccc1): 0.073
- photoluminescence quantum yield (in ClCCl): 0.067

- photoluminescence quantum yield (in C1COCCO1): 0.06
- photoluminescence quantum yield (in CC#N): 0.034
- photoluminescence quantum yield (in CO): 0.047
- photoluminescence quantum yield (in O): 0.035
SMILES: O=c1[nH]c(=O)n([C@@H]2O[C@H](CO)[C@@H](O)[C@H]2O)cc1-c1cc2ccccc2s1

- photoluminescence quantum yield (in C1CCCCC1): 0.04
SMILES: C1=Cc2ccc3ccccc3c2N(c2ccccc2)B1c1ccccc1

- photoluminescence quantum yield (in ClCCl): 0.03
SMILES: COc1ccc(C#Cc2c3cc4ccccc4cc3c(C#Cc3ccc(OC)cc3)c3cc4ccccc4cc23)cc1
